Broadly, the pIC50 is the negative decadic logarithm of the IC50, by convention in mol/L. By pEC50 is commonly meant −log10 of the EC50, conventionally taken in molar units.

Molecules are shown by their SMILES. pEC50, pIC50: −log10 of the molar value. Like-named read-outs stand apart in the source and are kept apart here.

Experiment [1] addresses T1, STING WT: His-TVMV-S-hSTING(155-341)-H232R (Homo sapiens, UniProt Q86WV6, H232R).
T1 construct: His-TVMV-S-hSTING(155-341)-H232R
Description: STING HTRF binding assay (time resolved FRET competition), STING WT. As to conditions: 20 nM His-tagged STING cytoplasmic domain, 200 nM fluorescein-labeled cGAMP analog probe, one hour; read-out: HTRF Binding Assays IC50 STING WT. The procedure: (§1) A time resolved FRET-based competition binding assay was used to assess test article binding to STING WT and STING AQ. His-tagged STING cytoplasmic domain (WT or AQ) at a concentration of 20 nM was incubated with 2.5 nM Tb-labeled anti-His antibody, test compound, and fluorescein-labeled cGAMP analog probe (BioLog cat. no. C195) at a concentration of 200 nM (STING WT) or 40 nM (STING AQ) in PBS containing 0.005% Tween-20 and 0.1% BSA for one hour. Fluorescence at 495 nm and 520 nm was measured using an EnVision microplate reader to quantify FRET between Tb-labeled anti-His antibody and fluorescein-labeled probe. Background was defined as the signal obtained in the absence of STING protein, and background subtracted FRET ratios were normalized to the maximum signal obtained in the absence of test compound. These values were converted to a percent inhibition. Percent inhibition was determined for test compounds at 11 concentrations. The IC50, defined as the concentration of competing test compound needed to reduce specific binding of the probe by 50%, was calculated using the 4 parameter logistic equation to fit the data

The subject of the next experiment is IRF3. Description: STING THP1 reporter assay, IRF pathway (secreted luciferase Lucia, QUANTI-Luc). It counts as cell-based. The settings on record: THP1-Dual cells, 10% human plasma, 100% activation = 100 μM cGAMP, luciferase readout, read-out: THP1 Reporter Assays EC50 IRF3. The source says: (§2) THP1-Dual™ cells were derived from the human THP-1 monocyte cell line by stable integration of two inducible reporter constructs. To this end, THP1-Dual™ cells allow the simultaneous study of the NF-κB pathway, by monitoring the activity of SEAP, and the IRF pathway by assessing the activity of a secreted luciferase (Lucia). Both reporter proteins are readily measurable in the cell culture supernatant when using QUANTI-Blue™, a SEAP detection reagent, and QUANTI-Luc™, a luciferase detection reagent.
(§3) THP1-Dual™ cells induce the activation of NF-κB in response to STING agonists. They also trigger the IRF pathway upon stimulation with STING agonists, such as cGAMP. Here, the THP-1-Dual cells were used to assess STING binders for function on the cellular level.
(§4) Serial dilutions of compounds in DMSO were added to low volume 384 well plates at 100 nl/well using an ECHO acoustic dispenser (Labcyte, model 550) to achieve final starting concentration of 100 μM in cell suspension. THP-1 Dual™ STING reporter cells (Invivogen, Dual cells cat # THPD-nfis) were added to the plates with compounds at 15,000 cells in 10 μL per well in RPMI media (Gibco, cat #11875) containing 10% human plasma in a low volume 384-well black wall clear bottom tissue culture plate (Corning, cat #3542) for SEAP assay and low volume solid white plate (Corning, cat #3826) for luciferase assay. One column of the plate was reserved for treatment with cGAMP at 100 μM for 100% activation calculation and one column for no treatment (DMSO only) for baseline activation. Plates were then incubated in 37° C. incubator at 5% CO2 for 20 hours.
(§5) In the SEAP assay, 5 μl of 2× QuantiBlue (Invivogen, cat # Rep-qb2) is added to 384 well black plates seeded with THP1 cells and incubated at 37° C. for 2 hours. Plates were read on the Envision (Perkin Elmer) at 620 nm wavelength (OD620). In the luciferase assay, 5 μl of Quantiluc (Invivogen, Rep-qlc2) is added to white 384 well plates seeded with THP1 cells and read at 5 minutes on the Envision (Perkin Elmer) using a luminescence protocol (RLU). For both cell lines, 100% activation was determined by value (RLU) of THP-1 Dual STING cells stimulated with 100 μM cGAMP (Invivogen, cat # TLRL-NACGA23-5).

Another experiment relates to NFkB. Description: STING THP1 reporter assay, NF-κB pathway (SEAP, QUANTI-Blue). It counts as cell-based. As to conditions: THP1-Dual cells, 10% human plasma, 100% activation = 100 μM cGAMP.
Source text: as §2, §3, §4, §5

Experiment [2] deals with T2, STING AQ: His-TVMV-S-hSTING(155-341)-G230A-R293Q (Homo sapiens, UniProt Q86WV6, G230A/H232R/R293Q).
T2 construct: His-TVMV-S-hSTING(155-341)-G230A-R293Q
The experiment is described as follows: STING HTRF binding assay (time resolved FRET competition), STING AQ. The settings on record: 20 nM His-tagged STING cytoplasmic domain, 40 nM fluorescein-labeled cGAMP analog probe, one hour; read-out: HTRF Binding Assays IC50 STING AQ. The procedure:
as §1

Where [3] appears, read: 20 hours, SEAP readout OD620, read-out: THP1 Reporter Assays EC50 NFkB.
[4] abbreviates: Homo sapiens, THP-1, 20 h, SEAP readout OD620, read-out: THP1 Reporter Assays EC50 NFkB.

T1 sequence (Q86WV6 with tags, fused parts or gaps H232R): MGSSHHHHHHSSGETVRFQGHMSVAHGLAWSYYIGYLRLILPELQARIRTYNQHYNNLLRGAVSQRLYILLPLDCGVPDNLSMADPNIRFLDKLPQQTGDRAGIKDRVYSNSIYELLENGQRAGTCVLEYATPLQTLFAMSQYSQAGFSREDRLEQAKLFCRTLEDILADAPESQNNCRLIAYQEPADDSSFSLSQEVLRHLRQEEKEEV
T2 sequence (Q86WV6 with tags, fused parts or gaps G230A/H232R/R293Q): as the sequence (Q86WV6 with tags, fused parts or gaps H232R) above, with G99A, R162Q counted along it

`Nc1ncnc2c1ncn2[C@@H]1C[C@@H]2COP(=O)(S)O[C@H]3[C@@H](F)[C@H](n4cnc5c(N)ncnc54)O[C@@H]3COP(=O)(S)OC[C@H]21` (single isomer, unassigned) [Example 1-1]: the pIC50 in experiment [1] was 5.80; in experiment [2], 7.22. Besides, the pEC50 with IRF3 (20 hours) and in the experiment on NFkB (setting [3]) was less than 4.00 in each case.

Take `NC(=O)c1cccc2c1nnn2[C@@H]1O[C@@H]2COP(O)(=S)OC[C@@H]3[C@@H](COP(O)(=S)O[C@H]2[C@H]1F)C[C@H]3n1cnc2c(N)ncnc21` (single isomer, unassigned) [Example 12-1]: the negative logarithm of the IC50 (pIC50) in experiment [1] was 4.28; in experiment [2], 4.70. In addition, the negative logarithm of the EC50 (pEC50) was less than 4.00 with IRF3 (Homo sapiens, THP-1, 20 h) and less than 4.00 with NFkB (setting [4]).

As for `NC(=O)c1cccc2c1nnn2[C@@H]1O[C@@H]2COP(O)(=S)OC[C@@H]3[C@@H](COP(O)(=S)O[C@@H]1[C@@H]2F)C[C@H]3n1cnc2c(N)ncnc21` (single isomer, unassigned) [Example 11-3], the values for the negative-log IC50 (pIC50) in experiment [1] and in experiment [2] were 6.09 and 6.96, respectively. Further, the pEC50 was 4.15 in the experiment with IRF3 (20 hours) and 4.29 in the experiment on NFkB (setting [3]).

For the compound `Nc1ncnc2c1ncn2[C@@H]1C[C@@H]2COP(O)(=S)O[C@@H]3[C@H](O)[C@@H](COP(O)(=S)OC[C@H]21)O[C@H]3n1cnc2c(N)ncnc21` (single isomer, unassigned) [Example 4-2], the pIC50 is 5.43 in experiment [1] and 7.30 in experiment [2]. Further, the negative logarithm of the EC50 (pEC50) was 4.14 in the experiment on IRF3 (20 hours) and 4.06 with NFkB (setting [3]).

Turning to `O=c1[nH]c2nccn2c2c1ncn2[C@@H]1O[C@@H]2COP(=O)(S)OC[C@@H]3[C@@H](COP(=O)(S)O[C@@H]1[C@@H]2O)C[C@H]3n1cnc2c(O)ncnc21` (single isomer, unassigned) [Example 14-3], the pIC50 in experiment [1] was 4.84; in experiment [2], 5.77. For the same compound, the pEC50 in the experiment with IRF3 (20 hours) and in the experiment on NFkB (setting [3]) was less than 4.00 in each case.

With `O=c1[nH]c2nccn2c2c1ncn2[C@@H]1O[C@@H]2COP(=O)(S)OC[C@@H]3[C@@H](COP(=O)(S)O[C@@H]1[C@@H]2O)C[C@H]3n1cnc2c(O)ncnc21` (single isomer, unassigned) [Example 14-4], the negative logarithm of the IC50 (pIC50) in experiment [1] was 5.37; in experiment [2], 6.04. Besides, the pEC50 with IRF3 (20 hours) and in the experiment with NFkB (setting [3]) was less than 4.00 in each case.

As for `Nc1nc2c(ncn2[C@@H]2C[C@@H]3COP(O)(=S)O[C@H]4[C@@H](F)[C@H](n5cnc6c(N)ncnc65)O[C@@H]4COP(O)(=S)OC[C@H]32)c(=O)[nH]1` (single isomer, unassigned) [Example 18-1], the results for the pIC50 in experiment [1] and in experiment [2] were 8.40 and 8.70, respectively. Further, the pEC50 with IRF3 (20 hours) was 6.22; in the experiment on NFkB (setting [3]), 5.59.

As for `Nc1ncnc2c1ncn2[C@@H]1C[C@@H]2COP(O)(=S)O[C@H]3[C@@H](F)[C@H](n4cnc5c(=O)[nH]c6nccn6c54)O[C@@H]3COP(O)(=S)OC[C@H]21` (single isomer, unassigned) [Example 9-3], the negative logarithm of the IC50 (pIC50) in experiment [1] was 5.04; in experiment [2], 6.46. In addition, the pEC50 in the experiment on IRF3 (20 hours) and with NFkB (setting [3]) was less than 4.00 in each case.

As for `NC(=O)c1cccc2c1nnn2[C@@H]1O[C@@H]2COP(O)(=S)OC[C@@H]3[C@@H](COP(O)(=S)O[C@H]2[C@H]1F)C[C@H]3n1cnc2c(N)ncnc21` (single isomer, unassigned) [Example 12-2], the figures for the pIC50 in experiment [1] and in experiment [2] were less than 4.00 and 4.05, respectively. For the same compound, the pEC50 with IRF3 (20 hours) and in the experiment with NFkB (setting [3]) was less than 4.00 each time.

Take `Nc1ncnc2c1ncn2[C@@H]1C[C@@H]2COP(O)(=S)O[C@H]3[C@@H](F)[C@H](n4cnc5c(=O)[nH]c6nccn6c54)O[C@@H]3COP(O)(=S)OC[C@H]21` (single isomer, unassigned) [Example 9-1]: the pIC50 was less than 4.00 in experiment [1] and 4.70 in experiment [2]. For the same compound, the pEC50 in the experiment on IRF3 (Homo sapiens, THP-1, 20 h) was less than 4.00; in the experiment on NFkB (setting [4]) it was less than 4.00.

Consider `NC(=O)c1cccc2c1nnn2[C@@H]1C[C@@H]2COP(O)(=S)O[C@H]3[C@@H](F)[C@H](n4cnc5c(N)ncnc54)O[C@@H]3COP(O)(=S)OC[C@H]21` (single isomer, unassigned) [Example 13-1], for which the results for the pIC50 in experiment [1] and in experiment [2] were less than 4.00 and 4.07, respectively. The pEC50 in the experiment with IRF3 (Homo sapiens, THP-1, 20 h) was less than 4.00; in the experiment on NFkB (setting [4]), less than 4.00.

Take `NC(=O)c1cccc2c1nnn2[C@@H]1C[C@@H]2COP(O)(=S)O[C@H]3[C@@H](F)[C@H](n4cnc5c(N)ncnc54)O[C@@H]3COP(O)(=S)OC[C@H]21` (single isomer, unassigned) [Example 13-2]: the pIC50 in experiment [1] is less than 4.00; in experiment [2], 5.52. In addition, the pEC50 in the experiment with IRF3 (20 hours) and in the experiment on NFkB (setting [3]) was less than 4.00 in each case.

Take `Nc1ncnc2c1ccn2[C@@H]1O[C@@H]2COP(O)(=S)OC[C@@H]3[C@@H](COP(O)(=S)O[C@H]2[C@@H]1F)C[C@H]3n1cnc2c(N)ncnc21` (single isomer, unassigned) [Example 8-1]: in experiment [1], the pIC50 is less than 4.00. Further, the pEC50 with IRF3 (Homo sapiens, THP-1, 20 h) was less than 4.00; in the experiment on NFkB (setting [3]), 4.64.

Regarding `Nc1ncnc2c1ccn2[C@@H]1O[C@@H]2COP(O)(=S)OC[C@@H]3[C@@H](COP(O)(=S)O[C@H]2[C@@H]1F)C[C@H]3n1cnc2c(N)ncnc21` (single isomer, unassigned) [Example 8-3], the negative logarithm of the IC50 (pIC50) in experiment [1] and in experiment [2] was less than 4.00 in each case. For the same compound, the pEC50 with IRF3 (20 hours) and with NFkB (setting [3]) was less than 4.00 in each case.

For `Nc1ncnc2c1ncn2[C@@H]1C[C@@H]2COP(O)(=S)O[C@H]3C[C@H](n4ccc5c(Cl)ncnc54)O[C@@H]3COP(=O)(S)OC[C@H]21` (single isomer, unassigned) [Example 6-4], the pIC50 in experiment [1] was less than 4.00; in experiment [2] it was 4.83. Further, in the experiment on IRF3 (20 hours), the pEC50 was less than 4.00.

Turning to `Nc1ncnc2c1ncn2[C@@H]1C[C@@H]2COP(O)(=S)O[C@H]3[C@H](F)[C@H](n4ccc5c(Cl)ncnc54)O[C@@H]3COP(O)(=S)OC[C@H]21` (single isomer, unassigned) [Example 7-2], in experiment [1], the pIC50 was less than 4.00. Moreover, the pEC50 with IRF3 (20 hours) and with NFkB (setting [3]) was less than 4.00 throughout.

Consider `Nc1ncnc2c1ncn2[C@@H]1C[C@@H]2COP(O)(=S)O[C@H]3C[C@H](n4ccc5c(Cl)ncnc54)O[C@@H]3COP(=O)(S)OC[C@H]21` (single isomer, unassigned) [Example 6-2], for which the negative-log IC50 (pIC50) in experiment [1] was less than 4.00; in experiment [2] it was 4.08. Also, the pEC50 with IRF3 (20 hours) was less than 4.00.

Regarding `Nc1ncnc2c1ncn2[C@@H]1C[C@@H]2COP(O)(=S)O[C@H]3C[C@H](n4ccc5c(Cl)ncnc54)O[C@@H]3COP(=O)(S)OC[C@H]21` (single isomer, unassigned) [Example 6-3], the pIC50 is less than 4.00 in experiment [1] and 4.50 in experiment [2]. In the experiment with IRF3 (20 hours), the pEC50 is less than 4.00.

For the origin of these results see patent US10744150B2, “Cyclic dinucleotides as anticancer agents” (BRISTOL-MYERS SQUIBB COMPANY, priority 2017, dated 2020).
